A word on the Cmax: it is the highest concentration seen after dosing. In general, MIC refers to the least concentration at which growth counts as inhibited.

Data set [1] is described as follows: Cmax in Nocardia brasiliensis HUJEG-1 infected BALB/c mouse at 25 mg/kg, sc every 8 hrs by HPLC. It counts as ADME, organism-based. The arrangement: dose 25 mg/kg, route subcutaneous. The settings on record: in vivo.
A short description of data set [2]: Drug level in human plasma at 400 mg/day after 8 hrs. Conditions: read-out: Drug uptake. It counts as ADME, cell-free.
The test system of data set [3] is Nocardia brasiliensis. In words: Antimicrobial activity against Nocardia brasiliensis HUJEG-1 by broth microdilution method. It counts as functional. Background: Dilution methods test growth across graded concentrations, often in twofold steps.

In brackets after ≈: the same amount, converted by molar mass.

In data set [1], `O=C(O)c1cn(C2CC2)c2cc(N3CCNCC3)c(F)cc2c1=O` [CIPROFLOXACIN] yielded a Cmax of 2250 ng/mL.
For the compound `COc1c(N2C[C@@H]3CCCN[C@@H]3C2)c(F)cc2c(=O)c(C(=O)O)cn(C3CC3)c12` [MOXIFLOXACIN], the highest level in data set [1] (Cmax) was 4300 ng/mL. The concentration at 8 h in data set [2] is greater than 1000 ng/mL. This compound also returned an MIC in data set [3] of 0.25 µg/mL (≈ 0.623 µM).

The values are drawn from ChEMBL document CHEMBL1629568 (Antimicrob Agents Chemother, 2009).
